Results: patent US20230190774A1, “METHOD OF USING SUBSTRATES OF AKR1Bl/AKR1B10 AS ANTI-CANCER DRUGS” (Beijing Normal University Hong Kong Baptist University …, priority 2015, published 2023)
Entries after “also recorded” stand apart in the source; their conditions may differ.

Legend:
AKR1B10 [1] = target: T1, AKR1B10 (Homo sapiens, UniProt O60218); assay: Enzyme activity assay (NADPH oxidation), purified AKR1B10; type: biochemical; conditions: 20 mM substrate, pH 7.0, 30° C.
Protocol: (§1) Assay of AKR1B1 and AKR1B10 enzymes activities were conducted in 1 ml of the reaction mixture containing 135 mM sodium phosphate buffer (pH 6.2 for AKR1B1 or pH 7.0 for AKR1B10), 0.2 mM NADPH, 0.3 M ammonium sulfate, 2 µg purified protein and 20 mM of their substrate as indicated. The reaction mix was incubated at 30° C. for 30 minutes (min). Protein-free blank controls were included. The decrease of NADPH was monitored by spectrophotometer at 340 nm. Enzyme activity was calculated as the amount of NADPH oxidized/min/mg of protein (Shen Y et al., Chem Biol Interact. 2011, 191(1-3): 192-198).

AKR1B10 [2] = target: T1, AKR1B10; conditions: ND = no detectable activity or less than 32 nmol/min/mg; cited from earlier work
glycolysis = conditions: background statement; cited from earlier work
AKR1B1 [3] = target: T2, AKR1B1 (Homo sapiens, UniProt P15121); assay: Enzyme activity assay (NADPH oxidation), purified AKR1B1; type: biochemical; conditions: 20 mM substrate, pH 6.2, 30° C.
Protocol: as §1

SKOV3 cells [4] = assay: GSH assay of cell lysates; type: cell-based; conditions: 2DG (20 mM) 48 h
Protocol: (§2) HepG2 cells, SKOV3 cells, HCT116 cells and CaCo2 cells were cultured in DMEM medium, SW480 cells in 1640 medium, and HT29 cells in McCoy’s 5A medium. All cell culture media were supplemented with 10% FBS, 1% PSN, and cells were cultured in a humidified incubator containing 5% CO2 at 37° C. In cytotoxicity assays, cells were seeded at 1 × 10^5 cells/well in 96 well plates with full medium. In GSH assay and Western blot analysis, cells were seeded at 3× 10^6 cells/well in 6 well plates.
(§3) The cells were washed in cold PBS and then scraped into 300 µL of PBS. The cells were disrupted by ultrasonicator on ice followed by centrifuged at 3500 rpm at 4° C. The supernatant was transferred to a fresh tube and used for GSH assay using GSH assay kit. The concentrations of GSH in cell lysates were determined using the standard GSH calibration curve. The GSH detection for each sample was performed at least three times.

HCT116 cells [5] = assay: GSH assay of cell lysates; type: cell-based; conditions: 2DG (20 mM) 48 h
Protocol: as §2, §3

CaCo2 cells [6] = assay: GSH assay of cell lysates; type: cell-based; conditions: 2DG (20 mM) 48 h
Protocol: as §2, §3

HepG2 cells [7] = assay: GSH assay of cell lysates; type: cell-based; conditions: 2DG (20 mM) 48 h
Protocol: as §2, §3

SKOV3 cells [8] = assay: Cytotoxicity assay (cell survival rate, MTT); type: cell-based; conditions: substrate alone, 2DG for 72 hours
Protocol: as §2
(§4) The AKR1Bs substrates’ cytotoxicity was assessed by cell survival rate using MTT assay. After the cells were treated with the substrates for the length of time indicated, MTT was added to a final concentration of 0.5 mg/ml in each well of a 96-well plate, and the plates were incubated at 37° C. for 4 hour. Then DMSO was added to dissolve the formazan product, the amount of which is proportional to the number of live cells. The absorbance of dissolved dye was measured at 540 nm using an automatic microplate reader.

HCT116 cells [9] = assay: Cytotoxicity assay (cell survival rate, MTT); type: cell-based; conditions: substrate alone, 2DG for 72 hours
Protocol: as §2, §4

CaCo2 cells [10] = assay: Cytotoxicity assay (cell survival rate, MTT); type: cell-based; conditions: substrate alone, 2DG for 72 hours
Protocol: as §2, §4

HepG2 cells [11] = assay: Cytotoxicity assay (cell survival rate, MTT); type: cell-based; conditions: substrate alone, 2DG for 72 hours
Protocol: as §2, §4

AKR1B1 [12] = target: T2, AKR1B1; conditions: ND = no detectable activity or less than 32 nmol/min/mg; cited from earlier work
HT29 cells = assay: Cytotoxicity assay (cell survival rate, MTT); type: cell-based; conditions: substrate alone, 2DG for 72 hours
Protocol: as §4, with “HepG2 cells, SKOV3 cells, HCT116 cells and CaCo2 cells were cultured in DMEM medium, SW480 cells in 1640 medium, and HT29 cells in McCoy’s 5A medium. […] In cytotoxicity assays, cells were seeded at 1 × 10^5 cells/well in 96 well plates with full medium. In GSH assay and Western blot analysis, cells were seeded at 3× 10^6 cells/well in 6 well plates. The AKR1Bs” for “The AKR1Bs”

SW480 cells = assay: Cytotoxicity assay (cell survival rate, MTT); type: cell-based; conditions: substrate alone, 2DG for 72 hours
Protocol: as §4, with “HepG2 cells, SKOV3 cells, HCT116 cells and CaCo2 cells were cultured in DMEM medium, SW480 cells in 1640 medium, and HT29 cells in McCoy’s 5A medium. […] In cytotoxicity assays, cells were seeded at 1 × 10^5 cells/well in 96 well plates with full medium. In GSH assay and Western blot analysis, cells were seeded at 3× 10^6 cells/well in 6 well plates. The AKR1Bs” for “The AKR1Bs”

T1 sequence (O60218 whole entry): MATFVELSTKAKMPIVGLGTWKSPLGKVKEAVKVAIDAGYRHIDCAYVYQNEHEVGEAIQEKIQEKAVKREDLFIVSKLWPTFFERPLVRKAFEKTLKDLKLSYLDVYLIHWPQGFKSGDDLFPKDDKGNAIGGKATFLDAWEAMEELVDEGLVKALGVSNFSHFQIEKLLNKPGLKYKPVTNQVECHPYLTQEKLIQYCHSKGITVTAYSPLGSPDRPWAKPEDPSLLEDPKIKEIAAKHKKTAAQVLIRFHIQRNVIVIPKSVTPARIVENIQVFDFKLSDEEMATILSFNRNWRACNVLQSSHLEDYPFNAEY

O=CC[C@@H](O)[C@H](O)[C@H](O)CO [2DG, 2-deoxyglucose]
Efficiency as substrate of AKR1B10 (rate of NADPH depletion) (AKR1B10 [1]): then 2DG | Efficiency as substrate of AKR1B10 (rate of NADPH depletion) (AKR1B10 [1]; listed as 2 DG): worst substrate among the three | AKR1B10 activity, amount of NADPH (nmol) oxidized per min per mg of protein (AKR1B10 [2]): 87 nmol/min/mg | Inhibition of glycolysis (glycolysis): 15-40% | Efficiency as substrate of AKR1B1 (rate of NADPH depletion) (AKR1B1 [3]): then 2DG | Efficiency as substrate of AKR1B1 (rate of NADPH depletion) (AKR1B1 [3]; listed as 2 DG): worst substrate among the three | GSH level in the presence of 2DG (SKOV3 cells [4]): decreased significantly | GSH level in the presence of 2DG (HCT116 cells [5]): decreased significantly | GSH level in the presence of 2DG (CaCo2 cells [6]): decreased significantly | GSH level in the presence of 2DG (HepG2 cells [7]): decreased significantly | Cytotoxicity of AKR1Bs substrate (cell survival rate) (SKOV3 cells [8]): more sensitive; also recorded: not as efficient as glyceraldehyde and diacetyl | Cytotoxicity of AKR1Bs substrate (cell survival rate) (HCT116 cells [9]): more sensitive to 2DG than HepG2 and SKOV3 | Cytotoxicity of AKR1Bs substrate (cell survival rate) (CaCo2 cells [10]): more sensitive to 2DG than HepG2 and SKOV3 | Cytotoxicity of AKR1Bs substrate (cell survival rate) (HepG2 cells [11]): more sensitive; also recorded: not as efficient as glyceraldehyde and diacetyl | AKR1B1 activity, amount of NADPH (nmol) oxidized per min per mg of protein (AKR1B1 [12]): 149 nmol/min/mg | Cytotoxicity of AKR1Bs substrate (cell survival rate) (HT29 cells): more resistant | Cytotoxicity of AKR1Bs substrate (cell survival rate) (SW480 cells): more resistant
